Assay results as given in patent publication US9598431B1, “Compounds useful for inhibiting ROR-gamma-t” (Eli Lilly and Company, priority 2015, dated 2017).
Like-named read-outs stand apart in the source and are kept apart here.

Experiments:
[1] = tested on: IL-17 secretion in PBMC; experiment: PBMC IL-17 secretion ELISA; type: cell-based; settings: anti-CD3/anti-CD28/IL-23 stimulated human PBMC, mean ± SEM, read-out: hPBMC IL-17 ELISA
Protocol: Following the incubation period the plates are spun at 200×g for five minutes. Supernatants are diluted 1:1 with equal volume 1% BSA/PBS and tested for IL-17 with a human IL-17 ELISA kit from R&D system (catalog #D317E) according to the protocol provided with the kit with one exception—the colorimetric substrate OPD (o-phenylenediamine dihydrochloride, Sigma Cat #P6912) is used instead of the substrate supplied in the kit. Absorbance at 492 nm is measured with the Envision multi-label plate reader. A492 values are converted to concentration of IL-17 based on the IL-17 standard curve as shown below:
pg/mL IL-17=EC50*[[(Top−Bottom)/(A492−Bottom)]−1](1/−Hill). IC50's for inhibition of IL-17 secretion is calculated based on converted values using a standard 4-parameter fit with maximum inhibition determined from the average values of wells with no added stimulants nor compounds and minimum inhibition from the average values of wells with stimulants alone and no added compound.

[2] = tested on: GPI induced arthritis in DBA/1 mice; experiment: Glucose-6-phosphate isomerase (GPI) induced arthritis model; type: in vivo, mouse; settings: male DBA/1 mice, 1000 mg/Kg orally once daily
Protocol: The GPI induced arthritis model is adapted from K. Iwanami et al Arthritis Rheumatism 58, 754-763, 2008 and D. Schubert et al. J Immunology 172, 4503-4509, 2004. Mice (8-9 week old male DBA/1 mice) (Harlan) are randomly assigned into treatment groups based on body weights collected on the day of immunization (day 0). On the day of immunization (day 0), a 1:1 (v:v) mixture of recombinant human GPI (diluted to 4 mg/mL in PBS, Gibco) and complete Freund's adjuvant (CFA, Sigma) is mixed on a high speed homogenizer (Omni) for 40 minutes in a cold room. A final concentration of 2 mg/mL GPI is achieved in the emulsion. Mice are injected at the base of the tail (2 sites of injection, subcutaneously, 100 μL each site) with the GPI emulsion. Test compounds are dosed orally starting on the same day as immunization (day 0). Starting on day 0, each paw is scored for severity of joint swelling based on a 0 to 3 scoring system (See K. Iwanami et al Arthritis Rheumatism 58, 754-763, 2008. The clinical score represents the total score of all 4 paws (maximum score=12). Clinical scores are assessed on days 0, 2, 4, 7, 8, 9, 10, 11, 12, 14, 16, 18, and 21.
The AUC is calculated by a trapezoid method for clinical score over time from the day of immunization (day 0) to day 21. Test p-values were derived from Student's t-test.

## CCS(=O)(=O)c1ccc(CNC(=O)c2cc3c(s2)C2(CCN(C(C)c4cnc(C(F)(F)F)nc4)CC2)O[C@H](C)C3)nc1 (single isomer, unassigned; isomer 1) [Example 4, (5R′)—N-{[5-(Ethylsulfonyl)pyridine-2-yl]methyl}-5′-methyl-1-{1-[2-(trifluoromethyl)pyrimidin-5-yl]ethyl}-4′,5′-dihydrospiro[piperidine-4,7′thieno[2,3-C]pyran]-2′-carboxamide isomer 1]
[1]; 48 hours
  IC50: 106 nM

## CCS(=O)(=O)c1ccc(CNC(=O)c2cc3c(s2)C2(CCN(C(C)c4cnc(C(F)(F)F)nc4)CC2)O[C@H](C)C3)nc1 (single isomer, unassigned; isomer 2) [Example 5, (5R′)—N-{[5-(Ethylsulfonyl)pyridine-2-yl]methyl}-5′-methyl-1-{1-[2-(trifluoromethyl)pyrimidin-5-yl]ethyl}-4′,5′-dihydrospiro[piperidine-4,7′thieno[2,3-C]pyran]-2′-carboxamide isomer 2]
[1]; 48 hours
  IC50: 30.5 ± 29.3 nM

## CCS(=O)(=O)c1ccc(CNC(=O)c2cc3c(s2)C2(CCN(C(C)c4cnc(C(F)(F)F)nc4)CC2)OC(C)C3)nc1 (centres unmarked) [Example 1, N-{[5-(Ethylsulfonyl)pyridine-2-yl]methyl}-5′-methyl-1-{1-[2-(trifluoromethyl)pyrimidin-5-yl]ethyl}-4′,5′-dihydrospiro[piperidine-4,7′thieno[2,3-C]pyran]-2′-carboxamide]
[1]; Homo sapiens, PBMC, 48 h
  IC50: 77.3 nM

## CCS(=O)(=O)c1ccc(CNC(=O)c2cc3c(s2)C2(CCN([C@@H](C)c4cnc(C(F)(F)F)nc4)CC2)O[C@@H](C)C3)nc1 [Example 2, (5S′)—N-{[5-(Ethylsulfonyl)pyridine-2-yl]methyl}-5′-methyl-1-{(1S)-1-[2-(trifluoromethyl)pyrimidin-5-yl]ethyl}-4′,5′-dihydrospiro[piperidine-4,7′thieno[2,3-C]pyran]-2′-carboxamide]
[1]; Homo sapiens, PBMC, 48 h
  IC50: 33.7 ± 33.1 nM

## CCS(=O)(=O)c1ccc(CNC(=O)c2cc3c(s2)C2(CCN([C@H](C)c4cnc(C(F)(F)F)nc4)CC2)O[C@@H](C)C3)nc1 [Example 3, (5S′)—N-{[5-(Ethylsulfonyl)pyridine-2-yl]methyl}-5′-methyl-1-{(1R)-1-[2-(trifluoromethyl)pyrimidin-5-yl]ethyl}-4′,5′-dihydrospiro[piperidine-4,7′thieno[2,3-C]pyran]-2′-carboxamide]
[1]; Homo sapiens, PBMC, 48 h
  IC50: 20 ± 12.6 nM
[2]; compared to the vehicle group
  severity of paw swelling and mean clinical scores: reduces severity of paw swelling and maintains lower mean clinical scores
[2]; day 0 to day 21, compared to the vehicle group
  reduction in clinical score AUC: 75%
[2]; day 0 to day 21, n=8/group
  Clinical Score AUC (mean ± SEM): 22.20 ± 8.68
